Data set [1] deals with T1, ATP-dependent translocase ABCB1 (Homo sapiens, UniProt P08183). The experiment in a line: Inhibition of full length human ABCB1 expressed in Flp-In-293 cells at 2.5 uM incubated for 30 mins by calcein-AM uptake assay relative to control. The conditions noted are these: 0.5 h. Format: cell-based.
Data set [2] addresses T1, ATP-dependent translocase ABCB1. Nature of the data set: Inhibition of full length human ABCB1 expressed in Flp-In-293 cells at 5 uM incubated for 30 mins by calcein-AM uptake assay relative to control. Format: cell-based. The conditions noted are these: 0.5 h.

T1 sequence (P08183 whole entry): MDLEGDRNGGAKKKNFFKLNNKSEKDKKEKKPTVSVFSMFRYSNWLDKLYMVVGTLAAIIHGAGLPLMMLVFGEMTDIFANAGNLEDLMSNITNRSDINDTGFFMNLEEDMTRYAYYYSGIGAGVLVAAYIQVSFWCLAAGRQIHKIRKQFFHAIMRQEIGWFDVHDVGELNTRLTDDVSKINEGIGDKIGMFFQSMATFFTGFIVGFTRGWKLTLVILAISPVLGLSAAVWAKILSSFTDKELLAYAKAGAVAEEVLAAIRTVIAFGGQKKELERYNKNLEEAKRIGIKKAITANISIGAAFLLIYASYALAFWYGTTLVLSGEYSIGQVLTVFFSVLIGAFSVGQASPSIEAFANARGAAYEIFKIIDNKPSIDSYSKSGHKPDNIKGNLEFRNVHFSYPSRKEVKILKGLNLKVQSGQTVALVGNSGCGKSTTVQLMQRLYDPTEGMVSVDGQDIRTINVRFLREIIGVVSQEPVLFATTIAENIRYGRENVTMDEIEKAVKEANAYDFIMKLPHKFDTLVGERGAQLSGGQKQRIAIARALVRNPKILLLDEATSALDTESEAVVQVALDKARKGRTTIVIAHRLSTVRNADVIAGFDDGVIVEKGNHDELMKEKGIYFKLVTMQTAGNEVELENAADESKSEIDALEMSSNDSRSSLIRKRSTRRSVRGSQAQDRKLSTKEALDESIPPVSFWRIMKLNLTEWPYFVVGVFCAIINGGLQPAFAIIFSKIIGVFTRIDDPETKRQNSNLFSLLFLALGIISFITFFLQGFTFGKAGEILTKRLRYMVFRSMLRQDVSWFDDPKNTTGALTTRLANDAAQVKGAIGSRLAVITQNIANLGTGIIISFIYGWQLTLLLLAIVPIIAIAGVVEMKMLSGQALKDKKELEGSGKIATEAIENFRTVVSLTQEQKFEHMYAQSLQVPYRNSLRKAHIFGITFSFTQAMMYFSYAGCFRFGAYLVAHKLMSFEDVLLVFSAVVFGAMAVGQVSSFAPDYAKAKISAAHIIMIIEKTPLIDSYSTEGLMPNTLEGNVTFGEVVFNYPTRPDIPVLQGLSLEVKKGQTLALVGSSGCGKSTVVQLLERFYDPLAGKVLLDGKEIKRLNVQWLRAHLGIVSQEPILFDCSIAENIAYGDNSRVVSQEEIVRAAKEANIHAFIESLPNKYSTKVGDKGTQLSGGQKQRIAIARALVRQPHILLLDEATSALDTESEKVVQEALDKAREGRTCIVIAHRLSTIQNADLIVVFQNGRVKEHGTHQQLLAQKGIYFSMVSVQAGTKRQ

With `Cc1ccc(-c2coc3cc4occ(-c5ccc(C)cc5)c(=O)c4c(O)c3c2=O)cc1`, the “fold change (FC)” value was 1.62 in data set [1] and 1.81 in data set [2].
Taken in the same sequence, the figures for `O=c1c(-c2cccs2)coc2c1c(O)cc1occ(-c3cccs3)c(=O)c12` were 0.88 and 0.83.
With `O=c1c(-c2c(F)cccc2Cl)coc2cc3occ(-c4c(F)cccc4Cl)c(=O)c3c(O)c12`, the figures for the “fold change (FC)” value in data set [1] and in data set [2] were 0.95 and 1.06, respectively.
With `O=c1c(-c2ccc(Cl)cc2)coc2c1c(O)cc1occ(-c3ccc(Cl)cc3)c(=O)c12`, the “fold change (FC)” value in data set [1] is 0.76; in data set [2] it was 0.82.
`O=c1c(-c2ccccc2C(F)(F)F)coc2c1c(O)cc1occ(-c3ccccc3C(F)(F)F)c(=O)c12`: the entries for the “fold change (FC)” value in data set [1] and in data set [2] were 0.76 and 0.81, respectively.
As for `COc1ccc(CCN(C)CCCC(C#N)(c2ccc(OC)c(OC)c2)C(C)C)cc1OC` (centres undefined) [VERAPAMIL], in data set [2], the “fold change (FC)” value is 2.39.
For `O=c1c(-c2ccccc2)coc2cc3occ(-c4ccccc4)c(=O)c3c(O)c12`, the “fold change (FC)” value is 1.04 in data set [1] and 0.9 in data set [2].
Taken in the same sequence, the figures for `O=c1c(-c2cccc(Cl)c2)coc2cc3occ(-c4cccc(Cl)c4)c(=O)c3c(O)c12` were 0.5 and 0.87.
Turning to `O=c1c(-c2ccccc2Cl)coc2c1c(O)cc1occ(-c3ccccc3Cl)c(=O)c12`, the “fold change (FC)” value in data set [1] is listed as 0.98; in data set [2], 1.09.
As for `Cc1ccccc1-c1coc2cc3occ(-c4ccccc4C)c(=O)c3c(O)c2c1=O`, the results for the “fold change (FC)” value in data set [1] and in data set [2] were 0.87 and 0.81, respectively.
With `O=c1c(-c2cccc(F)c2)coc2c1c(O)cc1occ(-c3cccc(F)c3)c(=O)c12`, the “fold change (FC)” value in data set [1] is recorded as 0.96; in data set [2] it was 0.82.
The like results for `O=c1c(-c2ccccc2)coc2c1c(O)cc1occ(-c3ccccc3)c(=O)c12` were, in that order, 1.04 and 1.29.
The like results for `O=c1c(-c2ccc(OC(F)(F)F)cc2)coc2c1c(O)cc1occ(-c3ccc(OC(F)(F)F)cc3)c(=O)c12` were, in that order, 0.97 and 1.04.
`O=c1c(-c2ccccc2F)coc2cc3occ(-c4ccccc4F)c(=O)c3c(O)c12`: the “fold change (FC)” value in data set [1] is listed as 0.92; in data set [2], 0.89.
Regarding `O=c1c(C2CC2)coc2cc3occ(C4CC4)c(=O)c3c(O)c12`, the “fold change (FC)” value in data set [1] and in data set [2] was 0.86 each time.
Turning to `COc1ccc(-c2coc3cc4occ(-c5ccc(OC)c(OC)c5)c(=O)c4c(O)c3c2=O)cc1OC`, the “fold change (FC)” value in data set [1] is on record as 0.81; in data set [2], 0.86.
With `O=c1c(C2CC2)coc2c1c(O)cc1occ(C3CC3)c(=O)c12`, the results for the “fold change (FC)” value in data set [1] and in data set [2] were 0.8 and 0.63, respectively.
`O=c1c(-c2ccc(C(F)(F)F)cc2)coc2c1c(O)cc1occ(-c3ccc(C(F)(F)F)cc3)c(=O)c12`: the “fold change (FC)” value in data set [1] is reported as 0.87; in data set [2], 0.9.
Taken in the same sequence, the figures for `COc1ccccc1-c1coc2cc3occ(-c4ccccc4OC)c(=O)c3c(O)c2c1=O` were 0.76 and 0.82.
The like results for `O=c1c(-c2c(F)cccc2Cl)coc2c1c(O)cc1occ(-c3c(F)cccc3Cl)c(=O)c12` were, in that order, 0.66 and 0.64.
With `O=c1c(-c2ccccc2[N+](=O)[O-])coc2c1c(O)cc1occ(-c3ccccc3[N+](=O)[O-])c(=O)c12`, the “fold change (FC)” value in data set [1] is 0.98; in data set [2] it was 1.03.
Take `O=c1c(-c2ccccc2F)coc2c1c(O)cc1occ(-c3ccccc3F)c(=O)c12`: the “fold change (FC)” value is 0.76 in data set [1] and 0.67 in data set [2].
As to `O=c1c(-c2ccccc2Cl)coc2cc3occ(-c4ccccc4Cl)c(=O)c3c(O)c12`, the “fold change (FC)” value was 0.71 in data set [1] and 0.85 in data set [2].
As for `O=c1c(-c2cccc3ccccc23)coc2cc3occ(-c4cccc5ccccc45)c(=O)c3c(O)c12`, the results for the “fold change (FC)” value in data set [1] and in data set [2] were 0.72 and 0.64, respectively.
With `COc1ccc(-c2coc3cc4occ(-c5ccc(OC)cc5)c(=O)c4c(O)c3c2=O)cc1`, the “fold change (FC)” value is on record as 0.87 in data set [1] and 1.3 in data set [2].
In the case of `COc1cccc(-c2coc3cc4occ(-c5cccc(OC)c5)c(=O)c4c(O)c3c2=O)c1`, the “fold change (FC)” value in data set [1] was 1; in data set [2] it was 0.85.
In the case of `O=c1c(-c2ccc(F)cc2)coc2cc3occ(-c4ccc(F)cc4)c(=O)c3c(O)c12`, the figures for the “fold change (FC)” value in data set [1] and in data set [2] were 0.85 and 1.3, respectively.
Taken in the same sequence, the figures for `Cc1ccccc1-c1coc2c(c(O)cc3occ(-c4ccccc4C)c(=O)c32)c1=O` were 1.15 and 1.53.
In the case of `COc1cccc(-c2coc3c(c(O)cc4occ(-c5cccc(OC)c5)c(=O)c43)c2=O)c1`, the “fold change (FC)” value in data set [1] is recorded as 1.19; in data set [2] it was 1.28.
As to `O=c1c(-c2cccc(C(F)(F)F)c2)coc2cc3occ(-c4cccc(C(F)(F)F)c4)c(=O)c3c(O)c12`, the “fold change (FC)” value in data set [1] is on record as 1.27; in data set [2], 1.18.
The like results for `COc1cc(-c2coc3c(c(O)cc4occ(-c5cc(OC)c(OC)c(OC)c5)c(=O)c43)c2=O)cc(OC)c1OC` were, in that order, 0.76 and 0.75.
Turning to `COc1ccccc1-c1coc2c(c(O)cc3occ(-c4ccccc4OC)c(=O)c32)c1=O`, the “fold change (FC)” value in data set [1] is recorded as 1.4; in data set [2] it was 1.56.
The like results for `O=c1c(-c2cccc(C(F)(F)F)c2)coc2c1c(O)cc1occ(-c3cccc(C(F)(F)F)c3)c(=O)c12` were, in that order, 1.1 and 1.15.
Regarding `O=c1c(-c2ccc3c(c2)OCO3)coc2c1c(O)cc1occ(-c3ccc4c(c3)OCO4)c(=O)c12`, the “fold change (FC)” value in data set [1] is 0.72; in data set [2], 0.7.
Regarding `O=c1c(-c2ccccc2C(F)(F)F)coc2cc3occ(-c4ccccc4C(F)(F)F)c(=O)c3c(O)c12`, the “fold change (FC)” value in data set [1] is on record as 1.32; in data set [2], 1.36.
On to `Cc1cccc(-c2coc3cc4occ(-c5cccc(C)c5)c(=O)c4c(O)c3c2=O)c1`, for which the figures for the “fold change (FC)” value in data set [1] and in data set [2] were 0.86 and 0.93, respectively.
Turning to `O=c1c(-c2ccccc2[N+](=O)[O-])coc2cc3occ(-c4ccccc4[N+](=O)[O-])c(=O)c3c(O)c12`, the “fold change (FC)” value in data set [1] is reported as 0.85; in data set [2] it was 0.83.
On to `COc1cc(-c2coc3cc4occ(-c5cc(OC)c(OC)c(OC)c5)c(=O)c4c(O)c3c2=O)cc(OC)c1OC`, for which the “fold change (FC)” value in data set [1] is 0.8; in data set [2] it was 0.72.
Taken in the same sequence, the figures for `O=c1c(-c2cccc3ccccc23)coc2c1c(O)cc1occ(-c3cccc4ccccc34)c(=O)c12` were 0.87 and 0.85.
Regarding `O=c1c(-c2ccc(OC(F)(F)F)cc2)coc2cc3occ(-c4ccc(OC(F)(F)F)cc4)c(=O)c3c(O)c12`, the “fold change (FC)” value in data set [1] was 0.62; in data set [2] it was 0.63.
On to `O=c1c(-c2cccc(O)c2)coc2c1c(O)cc1occ(-c3cccc(O)c3)c(=O)c12`, for which the “fold change (FC)” value is 1.01 in data set [1] and 0.99 in data set [2].
On to `O=c1c(-c2ccc(Cl)cc2)coc2cc3occ(-c4ccc(Cl)cc4)c(=O)c3c(O)c12`, for which the results for the “fold change (FC)” value in data set [1] and in data set [2] were 1.06 and 1.08, respectively.
Take `O=c1c(-c2ccc([N+](=O)[O-])cc2)coc2c1c(O)cc1occ(-c3ccc([N+](=O)[O-])cc3)c(=O)c12`: the “fold change (FC)” value is 0.88 in data set [1] and 0.75 in data set [2].
With `O=c1c(-c2ccc(Cl)c(Cl)c2)coc2c1c(O)cc1occ(-c3ccc(Cl)c(Cl)c3)c(=O)c12`, the “fold change (FC)” value is given as 0.8 in data set [1] and 0.81 in data set [2].
Turning to `Cc1ccc(-c2coc3c(c(O)cc4occ(-c5ccc(C)cc5)c(=O)c43)c2=O)cc1`, the “fold change (FC)” value in data set [1] is reported as 1.58; in data set [2], 2.04.
As for `O=c1c(-c2cccc(Cl)c2)coc2c1c(O)cc1occ(-c3cccc(Cl)c3)c(=O)c12`, the results for the “fold change (FC)” value in data set [1] and in data set [2] were 0.83 and 0.82, respectively.
Consider `O=c1c(-c2cccc(F)c2)coc2cc3occ(-c4cccc(F)c4)c(=O)c3c(O)c12`, for which the “fold change (FC)” value in data set [1] was 0.6; in data set [2], 0.75.
With `O=c1c(-c2ccc(F)cc2)coc2c1c(O)cc1occ(-c3ccc(F)cc3)c(=O)c12`, the figures for the “fold change (FC)” value in data set [1] and in data set [2] were 0.92 and 0.84, respectively.
In the case of `O=c1c(-c2cccs2)coc2cc3occ(-c4cccs4)c(=O)c3c(O)c12`, the figures for the “fold change (FC)” value in data set [1] and in data set [2] were 0.61 and 0.67, respectively.
Regarding `O=c1c(-c2cccc(O)c2)coc2cc3occ(-c4cccc(O)c4)c(=O)c3c(O)c12`, the “fold change (FC)” value in data set [1] was 1.33; in data set [2] it was 1.19.

The values above are taken from ChEMBL document CHEMBL3822397, “Synthesis and bioevaluation of novel benzodipyranone derivatives as P-glycoprotein inhibitors for multidrug resistance reversal agents” (Eur J Med Chem, 2016).
